# What was measured:
# [1] = system: PANC-1 pancreatic carcinoma cell line; test: PANC-1 cell line toxicity (Cell titer Glo viability); settings: PANC-1, 72 h
# Method: (§1) The half maximal inhibition concentration (IC50) for each compound was determined by harvesting cells during the logarithmic growth period and then counting cell number using hemocytometer. The cell concentrations were adjusted to 5×10^4 cells/mL with respective culture medium. 30 μL of cell suspensions were added to three 384-well plates with the final cell density of 1.5×10^3 cells/well. Then, using a Biomek FX, test articles were serially diluted (10 mM top, 3× dilution intervals) along with a reference inhibitor (1 mM top, 3× dilution intervals) in acoustic grade Labcyte plate. Then, using an acoustic dispenser (Labcyte550), compounds were added as serially diluted to plate with cells: 90 nL of serially diluted compounds per well. 90 nL DMSO is added to control wells. Test plates were incubated for 72 h in the humidified incubator at 37° C. with 5% CO2. 25 μL of reconstituted Cell titer Glo reagent was added to each well. Each test plate was then incubated for 20 min at room temperature. Luminescence was then recorded using Synergy Neo2Multi-mode Reader.
# (§2) In order to calculate intersect IC50, a dose-response curve was fitted using nonlinear regression model with a sigmoidal dose response.
# (§3) The formula for calculating surviving rate is shown below, and the intersect IC50 was calculated according to the dose-response curve generated by the software:
# (§4) Culture medium were purchased from ATCC, USA.
# [2] = system: HL-60 acute promyelocytic leukemia cell line; test: HL-60 cell line toxicity (Cell titer Glo viability); settings: HL-60, 72 h
# Method: as §1, with “The cell concentrations were adjusted to 5×10^4 cells/mL with respective culture medium. 30 μL of cell suspensions were added to three 384-well plates with the final cell density of 1.5×10^3 cells/well.” left out
# as §2, §3
# The compounds of interest were assessed cell viability in the HL-60 acute promyelocytic leukemia cell line (ATCC® CCL-240). […] Culture medium were purchased from ATCC, USA.
# [3] = target: T1, cannabinoid receptor 2 (CNR2) (Homo sapiens, UniProt P34972); test: CB2 receptor agonist assay (cAMP Hunter eXpress, CNR2 CHO-K1 cells); format: cell-based; settings: agonist mode, Forskolin-stimulated cAMP, CNR2 CHO-K1 cells
# T1 construct: host or cells: CHO-K1
# Method: (§5) The assays were performed in cAMP Hunter eXpress cells engineered to overexpress naturally Gi/Go-coupled wildtype cannabinoid receptor 1 (CNR1) or cannabinoid receptor 2 (CNR2) in CHO-K1 cell type. In these cells, CB1 and/or […] agonists inhibit production of intracellular cAMP in response to stimulation with Forskolin. cAMP levels are determined using luminogenic detection reagents provided with the Hunter eXpress cAMP detection kit.
# (§6) • Assay ready CNR1 CHO-K1 cells were obtained from Eurofins/Discover X, cat #95-0071E2 • Assay ready CNR2 CHO-K1 cells were obtained from Eurofins/Discover X, cat #95-0183E2 • Hunter eXpress cAMP detection kit was also from Discover X. The kit includes all cAMP detection reagents, Forskolin, complete cell plating medium and cell assay buffer.
# The Assay-Ready CNR1 CHO-K1 or CNR2 CHO-K1 cells were thawed and re-suspended in pre-warmed Assay Complete plating medium and inoculated into 96 well plate at a density of 30,000 cells in 100 μL. The plates with cells were incubated for 24 h at 37° C. in 5% CO2. […] The cells were stimulated with the Forskolin/compound buffer for 30 min. After stimulation, 15 μL of cAMP antibody reagent and 60 μL of cAMP working detection solution were added to the cells and, the cells were incubated for 1 h at room temperature. After 1 h incubation, 60 μL of cAMP Solution A was added to the wells and the plate was incubated for 3 h at room temperature. The plate was read on Biotek Synergy Neo2 reader in luminescent mode. CB1 and CB2 agonists should reduce cAMP production in response to Forskilin. Relative luminescence units (RLUs) were plotted against compound concentration to determine apparent EC50 values of the agonist compounds.
# [4] = system: PC3 prostate adenocarcenoma cell line; test: PC3 cell line toxicity (Cell titer Glo viability); format: cell-based; settings: PC3, 72 h
# Method: (§7) 90 nL DMSO is added to control wells. […] Luminescence was then recorded using Synergy Neo2Multi-mode Reader.
# as §4
# [5] = system: SK-MEL-28 melanoma cell line; test: SK-MEL-28 cell line toxicity (Cell titer Glo viability); format: cell-based; settings: SK-MEL-28, 72 h
# Method: as §4
# • General cell culture reagents and plastic. • 384-Well Flat white Poly-styrene TC-Treated Microplates (Corning). • 384 well poly-propylene plates (acoustic grade, Labcyte) for compound dilution. • Cell titer Glo luminescent Cell Viability reagent (Cat #G7571, Promega).
# as §7
# [6] = target: T2, cannabinoid receptor 1 (CNR1) (Homo sapiens, UniProt P21554); test: CB1 receptor agonist assay (cAMP Hunter eXpress, CNR1 CHO-K1 cells); format: cell-based; settings: agonist mode, Forskolin-stimulated cAMP
# T2 construct: host or cells: CHO-K1
# Method: as §5, §6
# The Assay-Ready CNR1 CHO-K1 or CNR2 CHO-K1 cells were thawed and re-suspended in pre-warmed Assay Complete plating medium and inoculated into 96 well plate at a density of 30,000 cells in 100 μL. The plates with cells were incubated for 24 h at 37° C. in 5% CO2. […] The cells were stimulated with the Forskolin/compound buffer for 30 min. […] The plate was read on Biotek Synergy Neo2 reader in luminescent mode. […] Relative luminescence units (RLUs) were plotted against compound concentration to determine apparent EC50 values of the agonist compounds.
# [7] = read-out: EC50 (cell viability)
# T1 sequence (P34972 whole entry): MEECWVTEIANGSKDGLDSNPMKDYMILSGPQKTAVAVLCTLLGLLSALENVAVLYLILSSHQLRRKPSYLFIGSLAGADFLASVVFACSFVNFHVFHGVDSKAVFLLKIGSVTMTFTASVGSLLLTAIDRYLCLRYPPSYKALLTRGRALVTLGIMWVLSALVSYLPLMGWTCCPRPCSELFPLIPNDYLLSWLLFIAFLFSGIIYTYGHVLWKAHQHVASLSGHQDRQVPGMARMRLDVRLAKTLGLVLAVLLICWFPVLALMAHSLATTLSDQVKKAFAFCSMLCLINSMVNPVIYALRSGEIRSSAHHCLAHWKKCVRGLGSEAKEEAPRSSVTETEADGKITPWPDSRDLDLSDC
# T2 sequence (P21554 whole entry): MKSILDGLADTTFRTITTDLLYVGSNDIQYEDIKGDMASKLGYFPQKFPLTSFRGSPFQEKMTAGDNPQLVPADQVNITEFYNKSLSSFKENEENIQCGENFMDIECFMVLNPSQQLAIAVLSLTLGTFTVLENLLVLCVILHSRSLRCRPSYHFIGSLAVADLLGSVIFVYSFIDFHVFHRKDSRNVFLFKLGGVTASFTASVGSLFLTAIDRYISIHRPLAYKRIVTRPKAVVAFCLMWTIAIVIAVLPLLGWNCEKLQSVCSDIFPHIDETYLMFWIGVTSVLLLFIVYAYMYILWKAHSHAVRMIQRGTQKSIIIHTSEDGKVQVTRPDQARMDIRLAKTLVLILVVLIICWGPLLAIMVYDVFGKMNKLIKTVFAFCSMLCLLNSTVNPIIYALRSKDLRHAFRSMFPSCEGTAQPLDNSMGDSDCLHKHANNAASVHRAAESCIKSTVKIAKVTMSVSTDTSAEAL
substance,measurement,setting,value
Cannabigerol Quinone [Formula VI],higher tolerance of PANG-1 cells to the compound than staurosporine,[1],more than 750 fold
same,Cell Viability (%),[1]; 0.00017 uM,106.6%
same,Cell Viability (%),[1]; 0.00051 uM,107.5%
same,Cell Viability (%),[1]; 0.0015 uM,100.4%
same,Cell Viability (%),[1]; 0.0046 uM,104.2%
same,Cell Viability (%),[1]; 0.014 uM,100.2%
same,Cell Viability (%),[1]; 0.041 uM,99.9%
same,Cell Viability (%),[1]; 0.12 uM,99.2%
same,Cell Viability (%),[1]; 0.37 uM,98.6%
same,Cell Viability (%),[1]; 1.1 uM,102.6%
same,Cell Viability (%),[1]; 3.3 uM,95.7%
same,Cell Viability (%),[1]; 10 uM,99.4%
same,Cell Viability (%),[1]; 30 uM,99.8%
same,EC50,[1]; [7],> 30 µM
same,higher tolerance of HL-60 cells to the compound than staurosporine,[2],"more than 1,500 fold"
same,Cell Viability (%),[2]; 0.00017 uM,102.3%
same,Cell Viability (%),[2]; 0.00051 uM,113.4%
same,Cell Viability (%),[2]; 0.0015 uM,91.6%
same,Cell Viability (%),[2]; 0.0046 uM,94.0%
same,Cell Viability (%),[2]; 0.014 uM,94.1%
same,Cell Viability (%),[2]; 0.041 uM,83.6%
same,Cell Viability (%),[2]; 0.12 uM,85.1%
same,Cell Viability (%),[2]; 0.37 uM,91.3%
same,Cell Viability (%),[2]; 1.1 uM,91.3%
same,Cell Viability (%),[2]; 3.3 uM,97.8%
same,Cell Viability (%),[2]; 10 uM,81.9%
same,Cell Viability (%),[2]; 30 uM,61.5%
same,EC50,[2]; [7],> 30 µM
same,IC50,[3],0.12 µM
same,EC50,[4],> 30 µM
same,higher tolerance of PC3 cells to the compound than staurosporine,[4],"more than 10,000 fold"
same,Cell Viability (%),[4]; 0.00017 uM,97.4%
same,Cell Viability (%),[4]; 0.00051 uM,100.9%
same,Cell Viability (%),[4]; 0.0015 uM,96.0%
same,Cell Viability (%),[4]; 0.0046 uM,96.9%
same,Cell Viability (%),[4]; 0.014 uM,96.5%
same,Cell Viability (%),[4]; 0.041 uM,95.9%
same,Cell Viability (%),[4]; 0.12 uM,96.0%
same,Cell Viability (%),[4]; 0.37 uM,97.7%
same,Cell Viability (%),[4]; 1.1 uM,94.0%
same,Cell Viability (%),[4]; 3.3 uM,94.6%
same,Cell Viability (%),[4]; 10 uM,91.2%
same,Cell Viability (%),[4]; 30 uM,84.5%
same,EC50,[5],> 30 µM
same,higher tolerance of SK-MEL-28 cells to the compound than staurosporine,[5],more than 250 fold
same,Cell Viability (%),[5]; 0.00017 uM,100.0%
same,Cell Viability (%),[5]; 0.00051 uM,97.2%
same,Cell Viability (%),[5]; 0.0015 uM,96.2%
same,Cell Viability (%),[5]; 0.0046 uM,101.0%
same,Cell Viability (%),[5]; 0.014 uM,98.5%
same,Cell Viability (%),[5]; 0.041 uM,99.9%
same,Cell Viability (%),[5]; 0.12 uM,100.0%
same,Cell Viability (%),[5]; 0.37 uM,101.0%
same,Cell Viability (%),[5]; 1.1 uM,99.9%
same,Cell Viability (%),[5]; 3.3 uM,104.0%
same,Cell Viability (%),[5]; 10 uM,99.0%
same,Cell Viability (%),[5]; 30 uM,83.2%
same,IC50,[6],> 3 µM
